From patent publication US20060088874A1, “Methods and kits for detecting mutations” (Promega Corporation, priority 2004, published 2006)
Where two headings read alike, the source gives them in different places.

Columns and labels:
[1] = system: mtDNA (Δ-mtDNA4977 deletion); type: in vivo, C57BL/6 mice; settings: old age paraquat-treated group, three mice
Description: […] mice were housed and inbred at the University of Wisconsin, with an average life span ˜30 months. Four groups of three mice were included in the study: 5-month old mice (young control or YC); 5-month old mice treated with paraquat; 24-month old mice (old age); and 24-month old mice treated with paraquat. Paraquat-treated animals received a single intraperitoneal injection of 50 mg/kg body weight dissolved in PBS 24 hours after their last feeding. Each mouse was sacrificed by cervical dislocation.
The entire liver from each mouse was dissected, washed with PBS, placed in a 1.5 ml Ependorf tube, snap frozen in liquid nitrogen, and stored at −80° C. DNA was prepared from the mouse liver tissue by using the DNA-IQ Tissue and Hair Extraction Kit (Promega Corporation, Madison, Wis.) and was quantified using the PicoGreen dsDNA Quantitative Kit (Molecular Probes, Eugene, Oregon) following manufacturers protocols.
Based on the mouse mtDNA sequence, four fluorescence labeled primer pairs were designed to detect both wildtype sequences and mtDNA deletions. […]
Separation and detection of amplified fragments was performed on an ABI PRISM® 3100 Genetic Analyzer following the manufacturer's protocol (Applied Biosystems, Foster City, Calif.). Data was analyzed with the GeneScan and Genotyper computer software packages (Applied Biosystems). […]

[2] = system: mononucleotide repeat loci (mBat markers); type: in vivo, C57BL/6 mice
[3] = system: microsatellite markers in human fibroblast cell line #AG01522
Description: human fibroblast cell line #AG01522 from Coriell Cell Repository were cultured in MEM Eagle-Earle BSS 2× concentration of essential and non-essential amino acids and vitamins with 2 mM L-glutamine, 10% fetal bovine serum, 0.5 Units/ml of penicillin, 0.5 μg/ml of streptomycin. Cell cultures were grown at 37° C. and 5% CO2 under sterile conditions and split at a ratio of 1:5 when cells were confluent by releasing cells with trypsin-EDTA treatment. […] Cells were pelleted and DNA extracted.
Mutant alleles were identified by small-pool PCR as described in Example B above using primer pairs specific for microsatellite markers (Tables 2 and 7) including: (1) mononucleotide repeat markers (NR-21, NR-24, BAT-25, BAT-26 and MONO-27); (2) extended mononucleotide repeat markers (hBAT-51d, hBAT-52a, hBAT-53c, hBAT59a, hBAT-60a and hBAT-62); (3) tetranucleotide repeat markers on autosomal chromosomes (D7S3070, D7S3046, D7S1808, D10S1426 and D3S2432); (4) tri-, tetra- and penta-nucleotide repeats on the Y chromosome (DYS391, DYS389 I, DYS389 II, DYS438, DYS437, DYS19, DYS392, DYS393, DYS390, and DYS385); and (5) penta-nucleotide repeats Penta B, C, D, and E (Bacher, et al. 1999.

SMILES: C[n+]1ccc(-c2cc[n+](C)cc2)cc1 [Paraquat]
- Δ-mtDNA4977 detected (mice of group) [1]: All three mice in the old age paraquat-treated group showed Δ-mtDNA4977
- Mutation Freq ([2]; mBat-24, Old w/Paraquat): 0.000
- # Mutants ([2]; mBat-24, Old w/Paraquat, 318 alleles): 0
- Mutation Freq ([2]; mBat-24, Young w/ Paraquat): 0.002
- # Mutants ([2]; mBat-24, Young w/ Paraquat, 648 alleles): 1
- Mutation Freq ([2]; mBat-26, Old w/Paraquat): 0.000
- # Mutants ([2]; mBat-26, Old w/Paraquat, 340 alleles): 0
- Mutation Freq ([2]; mBat-26, Young w/ Paraquat): 0.000
- # Mutants ([2]; mBat-26, Young w/ Paraquat, 457 alleles): 0
- Mutation Freq ([2]; mBat-30, Old w/Paraquat): 0.000
- # Mutants ([2]; mBat-30, Old w/Paraquat, 344 alleles): 0
- Mutation Freq ([2]; mBat-30, Young w/ Paraquat): 0.000
- # Mutants ([2]; mBat-30, Young w/ Paraquat, 704 alleles): 0
- Mutation Freq ([2]; mBat-37, Old w/Paraquat): 0.000
- # Mutants ([2]; mBat-37, Old w/Paraquat, 306 alleles): 0
- Mutation Freq ([2]; mBat-37, Young w/ Paraquat): 0.001
- # Mutants ([2]; mBat-37, Young w/ Paraquat, 992 alleles): 1
- Mutation Freq ([2]; mBat-49, Old w/Paraquat): 0.000
- # Mutants ([2]; mBat-49, Old w/Paraquat, 194 alleles): 0
- Mutation Freq ([2]; mBat-51a, Old w/Paraquat): 0.000
- # Mutants ([2]; mBat-51a, Old w/Paraquat, 240 alleles): 0
- Mutation Freq ([2]; mBat-51b, Old w/Paraquat): 0.000
- # Mutants ([2]; mBat-51b, Old w/Paraquat, 186 alleles): 0
- Mutation Freq ([2]; mBat-52, Old w/Paraquat): 0.000
- # Mutants ([2]; mBat-52, Old w/Paraquat, 44 alleles): 0
- Mutation Freq ([2]; mBat-59, Old w/Paraquat): 0.013
- # Mutants ([2]; mBat-59, Old w/Paraquat, 448 alleles): 6
- Mutation Freq ([2]; mBat-59, Young w/ Paraquat): 0
- # Mutants ([2]; mBat-59, Young w/ Paraquat, 636 alleles): 4
- Mutation Freq ([2]; mBat-61a, Old w/Paraquat): 0.005
- # Mutants ([2]; mBat-61a, Old w/Paraquat, 428 alleles): 2
- Mutation Freq ([2]; mBat-64, Old w/Paraquat): 0.019
- # Mutants ([2]; mBat-64, Old w/Paraquat, 412 alleles): 8
- Mutation Freq ([2]; mBat-64, Young w/ Paraquat): 0
- # Mutants ([2]; mBat-64, Young w/ Paraquat, 443 alleles): 1
- Mutation Freq ([2]; mBat-66, Old w/Paraquat): 0.018
- # Mutants ([2]; mBat-66, Old w/Paraquat, 448 alleles): 8
- Mutation Freq ([2]; mBat-66, Young w/ Paraquat): 0
- # Mutants ([2]; mBat-66, Young w/ Paraquat, 592 alleles): 3
- Mutation Freq ([2]; mBat-67, Old w/Paraquat): 0.051
- # Mutants ([2]; mBat-67, Old w/Paraquat, 394 alleles): 20
- Mutation Freq ([2]; mBat-67, Young w/ Paraquat): 0
- # Mutants ([2]; mBat-67, Young w/ Paraquat, 334 alleles): 1
- mutations in loci mBAT-24, mBAT-26, mBat-30, or mBAT-37 ([2]; old paraquat-treated group, out of 1608 alleles): no mutations
- mutations in mononucleotide repeat alleles assayed, loci mBAT-59, mBAT-64, mBAT-66 or mBAT-67 ([2]; paraquat-treated old age group, SP-PCR, (25/1649)): over 1.8%

SMILES: OO [hydrogen peroxide]
- mutations in extended mononucleotide repeats, Y-STRs and A-rich pentanucleotide repeats ([3]; cells exposed to 0.1 to 1.2 mM hydrogen peroxide for 1 hour, 3 days recovery): Mutations were detected
- mutations in short mononucleotide repeat markers NR-21, NR-24, BAT-25, BAT-26 or MONO-27 ([3]; cells exposed to hydrogen peroxide, 0/1,526 alleles): No mutations
